ChEMBL document CHEMBL4325829, “Design and Synthesis of Tubulin and Histone Deacetylase Inhibitor Based on iso-Combretastatin A-4” (J Med Chem, 2018)
Converted amounts (≈) assume the structure as drawn. One block for each compound: values may come before it. The source made the active and inactive calls. No cut-off for these calls is given here.

Columns and labels:
[1] = Inhibition of sheep brain tubulin polymerization assessed as reduction in rate of microtubule assembly by DAPI-fluorescence based assay; parameters: species or system Ovis aries
[2] = system: HCT-116; assay: Antiproliferative activity against human HCT116 cells after 72 hrs by MTS assay; format: functional; conditions: Homo sapiens, HCT-116, 72 h
[3] = Induction of apoptosis in human BL2 cells assessed as late apoptotic cells at 10 nM after 48 hrs by annexin V-FITC/propidium iodide double staining-based flow cytometry (reference value: 2.1%); format: functional
[4] = Induction of apoptosis in human BL2 cells assessed as early apoptotic cells at 10 nM after 48 hrs by annexin V-FITC/propidium iodide double staining-based flow cytometry (reference value: 8.2%); format: functional
[5] = molecular target: T1, Histone deacetylase 8 (Homo sapiens, UniProt Q9BY41); assay: Inhibition of human recombinant HDAC8 after 30 mins using fluorogenic substrate by fluorimetric assay; conditions: read-out: IC50
T1 sequence (Q9BY41 whole entry): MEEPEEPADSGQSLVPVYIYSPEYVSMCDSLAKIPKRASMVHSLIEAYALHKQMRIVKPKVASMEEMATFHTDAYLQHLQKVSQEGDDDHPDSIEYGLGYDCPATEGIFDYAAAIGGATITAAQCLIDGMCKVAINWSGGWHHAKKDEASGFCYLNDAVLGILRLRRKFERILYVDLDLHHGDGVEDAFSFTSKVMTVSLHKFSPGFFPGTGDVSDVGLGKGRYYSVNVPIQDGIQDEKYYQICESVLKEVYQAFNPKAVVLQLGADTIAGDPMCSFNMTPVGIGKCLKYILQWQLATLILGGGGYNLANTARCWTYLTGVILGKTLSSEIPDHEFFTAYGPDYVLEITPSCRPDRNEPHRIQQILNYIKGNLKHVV

[6] = molecular target: T2, Protein deacetylase HDAC6 (Homo sapiens, UniProt Q9UBN7)
T2 sequence (Q9UBN7 whole entry): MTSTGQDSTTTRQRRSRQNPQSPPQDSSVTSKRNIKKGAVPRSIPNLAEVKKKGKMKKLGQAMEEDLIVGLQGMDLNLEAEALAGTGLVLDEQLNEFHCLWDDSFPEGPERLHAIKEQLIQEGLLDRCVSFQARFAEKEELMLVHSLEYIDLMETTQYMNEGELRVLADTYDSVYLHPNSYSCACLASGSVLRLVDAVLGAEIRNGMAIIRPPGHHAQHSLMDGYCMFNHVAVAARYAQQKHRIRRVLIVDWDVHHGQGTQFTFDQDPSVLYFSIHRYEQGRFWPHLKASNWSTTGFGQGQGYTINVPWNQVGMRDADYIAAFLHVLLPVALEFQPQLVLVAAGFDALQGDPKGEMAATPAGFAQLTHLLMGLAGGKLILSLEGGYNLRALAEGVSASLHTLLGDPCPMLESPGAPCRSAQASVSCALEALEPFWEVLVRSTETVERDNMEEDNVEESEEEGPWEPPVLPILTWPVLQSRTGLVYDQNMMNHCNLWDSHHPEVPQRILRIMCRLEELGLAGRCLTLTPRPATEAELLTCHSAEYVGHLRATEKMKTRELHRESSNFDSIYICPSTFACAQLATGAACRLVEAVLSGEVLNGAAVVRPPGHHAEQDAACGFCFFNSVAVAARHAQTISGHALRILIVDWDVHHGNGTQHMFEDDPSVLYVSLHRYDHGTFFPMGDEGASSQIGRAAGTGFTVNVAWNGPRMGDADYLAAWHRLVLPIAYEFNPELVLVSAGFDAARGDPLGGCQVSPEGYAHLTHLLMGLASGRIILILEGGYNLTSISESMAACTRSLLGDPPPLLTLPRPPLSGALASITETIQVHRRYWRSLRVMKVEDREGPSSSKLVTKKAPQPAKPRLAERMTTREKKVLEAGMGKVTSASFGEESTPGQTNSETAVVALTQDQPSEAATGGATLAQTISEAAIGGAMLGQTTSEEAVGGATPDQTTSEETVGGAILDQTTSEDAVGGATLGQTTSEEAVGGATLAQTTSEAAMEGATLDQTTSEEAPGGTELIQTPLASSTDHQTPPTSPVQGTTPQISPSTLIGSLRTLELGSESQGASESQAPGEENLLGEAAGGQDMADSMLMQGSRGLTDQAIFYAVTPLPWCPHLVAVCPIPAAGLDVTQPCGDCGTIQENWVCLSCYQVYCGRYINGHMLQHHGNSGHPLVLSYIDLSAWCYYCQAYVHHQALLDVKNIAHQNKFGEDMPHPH
Description: Inhibition of human recombinant HDAC6 after 30 mins using fluorogenic substrate by fluorimetric assay

[7] = molecular target: T3, Histone deacetylase 11 (Homo sapiens, UniProt Q96DB2); assay: Inhibition of human recombinant HDAC11 after 30 mins using fluorogenic substrate by fluorimetric assay; conditions: read-out: IC50
T3 sequence (Q96DB2 whole entry): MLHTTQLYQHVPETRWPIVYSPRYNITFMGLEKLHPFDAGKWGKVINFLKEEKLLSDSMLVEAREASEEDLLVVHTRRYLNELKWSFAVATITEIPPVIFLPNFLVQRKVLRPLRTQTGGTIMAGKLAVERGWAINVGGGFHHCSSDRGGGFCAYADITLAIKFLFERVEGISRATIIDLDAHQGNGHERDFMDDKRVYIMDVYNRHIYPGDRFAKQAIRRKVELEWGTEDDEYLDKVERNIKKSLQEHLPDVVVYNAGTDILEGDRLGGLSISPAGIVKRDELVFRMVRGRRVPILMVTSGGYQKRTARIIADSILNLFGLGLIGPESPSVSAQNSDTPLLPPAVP

[8] = species on record: Ovis aries; assay: Inhibition of sheep brain tubulin polymerization assessed as reduction in rate of microtubule assembly at 200 uM by DAPI-fluorescence based assay
[9] = system: MCF7; assay: Antiproliferative activity against human MCF7 cells after 72 hrs by MTS assay; format: functional; conditions: Homo sapiens, MCF7, 72 h
[10] = system: PC-3; assay: Antiproliferative activity against human PC3 cells after 72 hrs by MTS assay; format: functional; conditions: Homo sapiens, PC-3, 72 h
[11] = molecular target: T4, Histone deacetylase 8 (Homo sapiens) (UniProt Q9BY41); assay: Inhibition of HDAC8 in human HT-29 cells assessed as acetylated SMC3 levels at 25 uM after 6 hrs by Western blot analysis relative to control; format: cell-based
T4 sequence (whole entry): T1 sequence (Q9BY41 whole entry)

[12] = system: HT-29; assay: Antiproliferative activity against human HT-29 cells after 72 hrs by MTS assay; format: functional; conditions: Homo sapiens, HT-29, 72 h
[13] = molecular target: T5, Histone deacetylase (Homo sapiens) (UniProt Q13547+O15379+Q9UBN7+Q92769+Q9UQL6+Q8WUI4+Q9BY41+Q96DB2+P56524+Q9UKV0+Q969S8); assay: Inhibition of HDAC in human HT-29 cells assessed as phosphorylated gamma-H2AX levels at 605 nM after 3 days by Western blot analysis relative to control; format: cell-based
[14] = molecular target: T6, Protein deacetylase HDAC6 (Homo sapiens) (UniProt Q9UBN7); assay: Inhibition of HDAC6 in human HT-29 cells assessed as acetylated alpha-tubulin levels at 25 uM after 6 hrs by Western blot analysis relative to control; format: cell-based
T6 sequence (whole entry): T2 sequence (Q9UBN7 whole entry)

[15] = molecular target: T6, Protein deacetylase HDAC6 (Homo sapiens); assay: Inhibition of HDAC6 in human HT-29 cells assessed as acetylated alpha-tubulin levels at 25 uM after 24 hrs by Western blot analysis relative to control; format: cell-based
[16] = Aqueous solubility of the compound; format: physicochemical; conditions: water
[17] = system: U-87 MG; assay: Antiproliferative activity against human U87 cells after 72 hrs by MTS assay; format: functional, U-87MG ATCC; conditions: Homo sapiens, U-87 MG, 72 h
[18] = molecular target: T4, Histone deacetylase 8 (Homo sapiens); assay: Inhibition of HDAC8 in human HT-29 cells assessed as acetylated SMC3 levels at 25 uM after 24 hrs by Western blot analysis relative to control; format: cell-based
[19] = Lipophilicity, log P of the compound; format: physicochemical; conditions: octanol/water; read-out: logP
[20] = system: K562; assay: Antiproliferative activity against human K562 cells after 72 hrs by MTS assay; format: functional; conditions: Homo sapiens, K562, 72 h
[21] = system: A549; assay: Antiproliferative activity against human A549 cells after 72 hrs by MTS assay; format: functional; conditions: Homo sapiens, A549, 72 h
[22] = system: K-562R; assay: Antiproliferative activity against human K562R cells after 72 hrs by MTS assay; format: functional; conditions: Homo sapiens, K-562R, 72 h
[23] = system: MIA PaCa-2; assay: Antiproliferative activity against human MIAPaCa2 cells after 72 hrs by MTS assay; format: functional; conditions: Homo sapiens, MIA PaCa-2, 72 h
[24] = molecular target: T5, Histone deacetylase (Homo sapiens); assay: Inhibition of HDAC in human HT-29 cells assessed as phosphorylated gamma-H2AX levels at 302 nM after 3 days by Western blot analysis relative to control; format: cell-based
[25] = system: BXPC-3; assay: Antiproliferative activity against human BxPC3 cells after 72 hrs by MTS assay; format: functional; conditions: Homo sapiens, BXPC-3, 72 h
[26] = molecular target: T5, Histone deacetylase (Homo sapiens); assay: Inhibition of HDAC in human HT-29 cells assessed as gamma-H2AX phosphorylation after 3 days by Western blot analysis; format: cell-based

IC50 [1]: 20000 nM | GI50 [2]: 233 nM
SMILES: C=C(c1cc(OC)c(OC)c(OC)c1)c1ccc(OC)c(C(=O)NO)c1

SMILES: O=C(CCCCCCC(=O)Nc1ccccc1)NO [VORINOSTAT]
Activity [3]: 1.8% | Activity [4]: 6.7%

IC50 [1]: 22000 nM | GI50 [2]: 393 nM
SMILES: C=C(c1cc(OC)c(OC)c(OC)c1)c1ccc2c(ccn2CCC(=O)NO)c1

IC50 [5]: 240 nM | IC50 [1]: 3700 nM | IC50 [6]: 6900 nM | IC50 [7]: 5000 nM | GI50 [2]: 14 nM
SMILES: C=C(c1cc(OC)c(OC)c(OC)c1)c1ccc2c(c1)c(/C=C/C(=O)NO)cn2C

inhibition [8]: inactive | GI50 [2]: 3000 nM
SMILES: C=C(c1ccc(OC)c(C#CCCCC(=O)OCC)c1)c1cc(OC)c(OC)c(OC)c1

inhibition [8]: inactive | GI50 [2]: 500 nM
SMILES: C=C(c1ccc(OC)c(OCCCC(=O)NO)c1)c1cc(OC)c(OC)c(OC)c1

IC50 [1]: 81000 nM | GI50 [2]: 36 nM
SMILES: C=C(c1cc(OC)c(OC)c(OC)c1)c1ccc2c(c1)cc(C(=O)NO)n2C

IC50 [1]: 7300 nM | GI50 [2]: 30 nM
SMILES: C=C(c1cc(OC)c(OC)c(OC)c1)c1ccc2c(c1)c(C(=O)NO)cn2C

inhibition [8]: inactive | GI50 [2]: 1000 nM
SMILES: C=C(c1ccc(OC)c(C#CCCC(=O)OCC)c1)c1cc(OC)c(OC)c(OC)c1

inhibition [8]: inactive | GI50 [2]: 2500 nM
SMILES: C=C(c1ccc(OC)c(OCCCCCCC(=O)NO)c1)c1cc(OC)c(OC)c(OC)c1

IC50 [5]: 60 nM | GI50 [9]: 17 nM | GI50 [10]: 28 nM | IC50 [1]: 2100 nM | fold change (FC) [11]: 1.6 | IC50 [6]: 5000 nM | GI50 [12]: 63.6 nM | fold change (FC) [13]: 2.9 | fold change (FC) [14]: 0.3 | fold change (FC) [15]: 0.9 | solubility [16]: 88.3 µg/mL (≈ 229 µM) | GI50 [17]: 11 nM | fold change (FC) [18]: 2.7 | logP [19]: 2.13 | GI50 [20]: 20 nM | GI50 [21]: 22 nM | GI50 [22]: 80 nM | IC50 [7]: 8000 nM | GI50 [23]: 18 nM | fold change (FC) [24]: 1.3 | GI50 [25]: 25 nM | GI50 [2]: 8 nM | inhibition [26]: Dose-dependent effect
SMILES: C=C(c1cc(OC)c(OC)c(OC)c1)c1ccc(OC)cc1/C=C/C(=O)NO

inhibition [8]: inactive | GI50 [2]: 3000 nM
SMILES: C=C(c1ccc(OC)c(OCCCCCCC(=O)OCC)c1)c1cc(OC)c(OC)c(OC)c1
